Assay results: PMC5218480 (PLoS ONE, 2017)

Test system: MV-4-11 cells
Assay: Gene expression microarray analysis (Affymetrix PrimeView) and GSEA
Assay type: cell-based, human
Set-up: RFU PODN (11730768_x_at) / Fold change /veh PODN (11730768_x_at) / RFU LINC00158 (11744669_a_at) / Fold change /veh LINC00158 (11744669_a_at) / RFU DUSP10 (11751237_a_at) / Fold change /veh DUSP10 (11751237_a_at) / RFU ID3 (11757404_x_at) / Fold change /veh ID3 (11757404_x_at) / RFU PLEKHG5 (11737974_s_at) / Fold change /veh PLEKHG5 (11737974_s_at) / RFU LRRC4B (11730491_at) / Fold change /veh LRRC4B (11730491_at) / RFU GIMAP4 (11747438_a_at) / Fold change /veh GIMAP4 (11747438_a_at) / RFU KRT8 (11758183_x_at) / Fold change /veh KRT8 (11758183_x_at) / RFU CNN1 (11734310_a_at) / Fold change /veh CNN1 (11734310_a_at) / RFU VPS37D (11726825_at) / Fold change /veh VPS37D (11726825_at) / RFU C10orf10 (11716522_x_at) / Fold change /veh C10orf10 (11716522_x_at) / RFU KIR2DL2 /// KIR2DL4 /// KIR2DL5A /// KIR2DL5B /// KIR2DS1 /// KIR2DS2 /// KIR2DS3 /// KIR2DS4 /// KIR3DL3 /// KIR3DL3 /// KIR3DS1 (11738374_at) / Fold change /veh KIR2DL2 /// KIR2DL4 /// KIR2DL5A /// KIR2DL5B /// KIR2DS1 /// KIR2DS2 /// KIR2DS3 /// KIR2DS4 /// KIR3DL3 /// KIR3DL3 /// KIR3DS1 (11738374_at) / RFU C1QL1 (11718748_at) / Fold change /veh C1QL1 (11718748_at) / RFU TMPRSS4 (11747572_a_at) / Fold change /veh TMPRSS4 (11747572_a_at) / RFU HAMP (11756126_x_at) / Fold change /veh HAMP (11756126_x_at) / RFU RNFT2 (11725882_a_at) / Fold change /veh RNFT2 (11725882_a_at) / RFU NR4A2 (11747474_a_at) / Fold change /veh NR4A2 (11747474_a_at) / RFU ABCC12 (11746883_a_at) / Fold change /veh ABCC12 (11746883_a_at) / RFU TMEM136 (11760407_x_at) / Fold change /veh TMEM136 (11760407_x_at) / RFU CLDN22 /// WWC2 (11732394_at) / Fold change /veh CLDN22 /// WWC2 (11732394_at) / RFU HLA-DPB1 (11760878_x_at) / Fold change /veh HLA-DPB1 (11760878_x_at) / RFU SPINT1 (11716480_a_at) / Fold change /veh SPINT1 (11716480_a_at) / RFU GAP43 (11754022_s_at) / Fold change /veh GAP43 (11754022_s_at) / RFU A4GNT (11735810_at) / Fold change /veh A4GNT (11735810_at) / RFU PRB3 (11715151_x_at) / Fold change /veh PRB3 (11715151_x_at) / RFU TUBB4B (11761932_at) / Fold change /veh TUBB4B (11761932_at) / RFU CAPN14 (11732068_a_at) / Fold change /veh CAPN14 (11732068_a_at) / RFU TMCC2 (11721928_a_at) / Fold change /veh TMCC2 (11721928_a_at) / RFU IRGQ (11745062_a_at) / Fold change /veh IRGQ (11745062_a_at) / RFU FAM174B (11720279_a_at) / Fold change /veh FAM174B (11720279_a_at) / RFU TMPRSS4 (11748680_a_at) / Fold change /veh TMPRSS4 (11748680_a_at) / RFU FAM212B (11763350_a_at) / Fold change /veh FAM212B (11763350_a_at) / RFU PLEKHG5 (11743358_a_at) / Fold change /veh PLEKHG5 (11743358_a_at) / RFU ZSCAN30 (11745921_a_at) / Fold change /veh ZSCAN30 (11745921_a_at) / RFU CMKLR1 (11741424_a_at) / Fold change /veh CMKLR1 (11741424_a_at) / RFU LOC101060620 /// MAPK8IP1 (11723275_at) / Fold change /veh LOC101060620 /// MAPK8IP1 (11723275_at) / RFU SPTSSB (11747773_x_at) / Fold change /veh SPTSSB (11747773_x_at) / RFU PRSS12 (11739890_at) / Fold change /veh PRSS12 (11739890_at) / RFU BIN1 (11741810_x_at) / Fold change /veh BIN1 (11741810_x_at) / RFU WNT11 (11732464_a_at) / Fold change /veh WNT11 (11732464_a_at) / RFU C10orf10 (11716521_a_at) / Fold change /veh C10orf10 (11716521_a_at) / RFU C5orf56 (11738089_at) / Fold change /veh C5orf56 (11738089_at) / RFU CYB561 (11721691_x_at) / Fold change /veh CYB561 (11721691_x_at) / RFU ANKRD19P (11752326_a_at) / Fold change /veh ANKRD19P (11752326_a_at) / RFU OR2T12 /// OR2T33 /// OR2T8 (11738714_s_at) / Fold change /veh OR2T12 /// OR2T33 /// OR2T8 (11738714_s_at) / RFU VCAN (11748164_a_at) / Fold change /veh VCAN (11748164_a_at) / RFU JSRP1 (11732532_at) / Fold change /veh JSRP1 (11732532_at) / RFU KRTAP10-11 (11738290_x_at) / Fold change /veh KRTAP10-11 (11738290_x_at) / RFU MYO3A (11730013_a_at) / Fold change /veh MYO3A (11730013_a_at) / RFU EBF3 (11725865_a_at) / Fold change /veh EBF3 (11725865_a_at) / RFU CAMK2N1 (11719241_x_at) / Fold change /veh CAMK2N1 (11719241_x_at) / RFU C5orf56 (11738088_a_at) / Fold change /veh C5orf56 (11738088_a_at) / RFU OLFML3 (11715873_a_at) / Fold change /veh OLFML3 (11715873_a_at) / RFU LOC100653217 /// NTM (11731650_a_at) / Fold change /veh LOC100653217 /// NTM (11731650_a_at) / RFU MAPK11 (11762145_a_at) / Fold change /veh MAPK11 (11762145_a_at) / RFU FIZ1 (11724087_x_at) / Fold change /veh FIZ1 (11724087_x_at) / RFU OASL (11726364_x_at) / Fold change /veh OASL (11726364_x_at) / RFU SOX15 (11748057_x_at) / Fold change /veh SOX15 (11748057_x_at) / RFU CD79A (11719716_a_at) / Fold change /veh CD79A (11719716_a_at) / RFU HIST1H1D (11736915_at) / Fold change /veh HIST1H1D (11736915_at) / RFU CASKIN2 (11723855_a_at) / Fold change /veh CASKIN2 (11723855_a_at) / RFU LOC730098 (11760151_x_at) / Fold change /veh LOC730098 (11760151_x_at) / RFU OR4N2 (11742367_at) / Fold change /veh OR4N2 (11742367_at) / RFU PRRT2 (11749266_a_at) / Fold change /veh PRRT2 (11749266_a_at) / RFU SNX32 (11753110_a_at) / Fold change /veh SNX32 (11753110_a_at) / RFU CDHR5 (11726645_a_at) / Fold change /veh CDHR5 (11726645_a_at) / RFU RCAN1 (11760418_a_at) / Fold change /veh RCAN1 (11760418_a_at) / RFU FAM167A (11723789_a_at) / Fold change /veh FAM167A (11723789_a_at) / RFU FAM26E (11764081_at) / Fold change /veh FAM26E (11764081_at) / RFU ISYNA1 (11749810_s_at) / Fold change /veh ISYNA1 (11749810_s_at) / RFU ACY1 (11761880_at) / Fold change /veh ACY1 (11761880_at) / RFU 11764098_at / Fold change /veh 11764098_at / RFU SAMD14 (11745864_x_at) / Fold change /veh SAMD14 (11745864_x_at) / RFU NPB (11741838_a_at) / Fold change /veh NPB (11741838_a_at) / RFU TMPRSS6 (11731388_a_at) / Fold change /veh TMPRSS6 (11731388_a_at) / RFU KRTAP10-2 (11738614_at) / Fold change /veh KRTAP10-2 (11738614_at) / RFU ARHGAP8 /// PRR5-ARHGAP8 (11727945_x_at) / Fold change /veh ARHGAP8 /// PRR5-ARHGAP8 (11727945_x_at) / RFU KRTAP5-7 /// NADSYN1 (11734609_at) / Fold change /veh KRTAP5-7 /// NADSYN1 (11734609_at) / RFU RASL12 (11751679_a_at) / Fold change /veh RASL12 (11751679_a_at) / RFU CDKN2B (11736163_a_at) / Fold change /veh CDKN2B (11736163_a_at) / RFU PRF1 (11729649_at) / Fold change /veh PRF1 (11729649_at) / RFU, ZNF638 /// ZNF638-IT1 / Fold change vs veh, ZNF638 /// ZNF638-IT1 / RFU, PANK3 / Fold change vs veh, PANK3 / RFU, SH3YL1 / Fold change vs veh, SH3YL1 / RFU, ZEB2 / Fold change vs veh, ZEB2 / RFU, NRIP1 / Fold change vs veh, NRIP1 / RFU, PTTG1IP / Fold change vs veh, PTTG1IP / RFU, CAPN2 / Fold change vs veh, CAPN2 / RFU, MED14 / Fold change vs veh, MED14 / RFU, SNORA58 / Fold change vs veh, SNORA58 / RFU, C1orf63 / Fold change vs veh, C1orf63 / RFU, LRRFIP1 / Fold change vs veh, LRRFIP1 / RFU, NDUFAF7 / Fold change vs veh, NDUFAF7 / RFU, SLC12A2 / Fold change vs veh, SLC12A2 / RFU, IBTK / Fold change vs veh, IBTK / RFU, ESF1 / Fold change vs veh, ESF1 / Fold change vs veh, TMEM50B / RFU, TAOK1 / Fold change vs veh, TAOK1 / RFU, ACBD3 / Fold change vs veh, ACBD3 / RFU, TMA16 / Fold change vs veh, TMA16 / RFU, RWDD3 / Fold change vs veh, RWDD3 / RFU, BCAT1 / Fold change vs veh, BCAT1 / RFU, EDEM3 / Fold change vs veh, EDEM3 / RFU, TMEM33 / Fold change vs veh, TMEM33 / RFU, WDR75 / Fold change vs veh, WDR75 / RFU, AHCTF1 / Fold change vs veh, AHCTF1 / RFU, TFRC / Fold change vs veh, TFRC / RFU, ZDHHC17 / Fold change vs veh, ZDHHC17 / RFU, NOM1 / Fold change vs veh, NOM1 / RFU, ARL8B / Fold change vs veh, ARL8B / RFU, ZBTB11 / Fold change vs veh, ZBTB11 / RFU, TAMM41 / Fold change vs veh, TAMM41 / RFU, KIAA1704 /// LOC100996395 / Fold change vs veh, KIAA1704 /// LOC100996395 / RFU, ING1 / Fold change vs veh, ING1 / RFU, TRMT61B / Fold change vs veh, TRMT61B / RFU, FUBP3 / Fold change vs veh, FUBP3 / RFU, TP53 / Fold change vs veh, TP53 / RFU, TNKS2 / Fold change vs veh, TNKS2 / RFU, ZFP14 / Fold change vs veh, ZFP14 / RFU, ACTR2 / Fold change vs veh, ACTR2 / RFU, PPP3R1 / Fold change vs veh, PPP3R1 / RFU, PIK3R1 / Fold change vs veh, PIK3R1 / RFU, HNRNPA1 / Fold change vs veh, HNRNPA1 / RFU, RNF170 / Fold change vs veh, RNF170 / RFU, ZNF28 / Fold change vs veh, ZNF28 / RFU, RNGTT / Fold change vs veh, RNGTT / RFU, OGT / Fold change vs veh, OGT / RFU, BRD1 / Fold change vs veh, BRD1 / RFU, MARS / Fold change vs veh, MARS / RFU, ZNF655 / Fold change vs veh, ZNF655 / RFU, FAHD1 / Fold change vs veh, FAHD1 / RFU, BDP1 / Fold change vs veh, BDP1 / RFU, LRRCC1 / Fold change vs veh, LRRCC1 / RFU, ARID1A / Fold change vs veh, ARID1A / RFU, ZNF146 / Fold change vs veh, ZNF146 / RFU, ZNF330 / Fold change vs veh, ZNF330 / RFU, GPN3 / Fold change vs veh, GPN3 / RFU, C9orf123 / Fold change vs veh, C9orf123 / RFU, N4BP2L2 / Fold change vs veh, N4BP2L2 / RFU, ARFIP1 / Fold change vs veh, ARFIP1 / RFU, FAM179B / Fold change vs veh, FAM179B / RFU, BCL10 / Fold change vs veh, BCL10 / RFU, UHRF1BP1L / Fold change vs veh, UHRF1BP1L / RFU, BET1 / Fold change vs veh, BET1 / RFU, CNOT2 / Fold change vs veh, CNOT2 / RFU, ZNF268 / Fold change vs veh, ZNF268 / Fold change vs veh, ZNF507 / RFU, DGCR2 / Fold change vs veh, DGCR2 / RFU, WDSUB1 / Fold change vs veh, WDSUB1 / Fold change vs veh, HSP90B1 /// MIR3652 / RFU, ADSS / Fold change vs veh, ADSS / RFU, GK / Fold change vs veh, GK / RFU, ZNF148 / Fold change vs veh, ZNF148 / RFU, TAF9 / Fold change vs veh, TAF9 / RFU, SLC1A5 / Fold change vs veh, SLC1A5 / RFU, SLMO2 / Fold change vs veh, SLMO2 / RFU, ABCC4 / Fold change vs veh, ABCC4 / RFU, LOC101060439 /// RAP1B / Fold change vs veh, LOC101060439 /// RAP1B / RFU, RFX7 / Fold change vs veh, RFX7 / RFU, GTPBP10 / Fold change vs veh, GTPBP10 / RFU, CNEP1R1 / Fold change vs veh, CNEP1R1 / RFU, BIVM-ERCC5 /// ERCC5 / Fold change vs veh, BIVM-ERCC5 /// ERCC5 / RFU, ILF3 / Fold change vs veh, ILF3 / RFU 11762660_at / Fold change /veh 11762660_at / RFU VCAN (11757783_s_at) / Fold change /veh VCAN (11757783_s_at) / RFU DDX43 (11728927_at) / Fold change /veh DDX43 (11728927_at) / RFU KRT8 (11758188_x_at) / Fold change /veh KRT8 (11758188_x_at) / RFU NKD1 (11759106_at) / Fold change /veh NKD1 (11759106_at) / RFU SRD5A1 (11742802_a_at) / Fold change /veh SRD5A1 (11742802_a_at) / RFU TPSAB1 /// TPSB2 (11721975_s_at) / Fold change /veh TPSAB1 /// TPSB2 (11721975_s_at) / RFU GSTM3 (11746129_a_at) / Fold change /veh GSTM3 (11746129_a_at) / RFU IL23R (11737362_x_at) / Fold change /veh IL23R (11737362_x_at) / RFU TMEM51 (11727254_a_at) / Fold change /veh TMEM51 (11727254_a_at) / RFU PIWIL2 (11732686_x_at) / Fold change /veh PIWIL2 (11732686_x_at) / RFU ORM1 (11744905_x_at) / Fold change /veh ORM1 (11744905_x_at) / RFU CCDC152 (11743942_at) / Fold change /veh CCDC152 (11743942_at) / RFU ECM1 (11717891_a_at) / Fold change /veh ECM1 (11717891_a_at) / RFU IL23R (11748794_a_at) / Fold change /veh IL23R (11748794_a_at) / RFU TNFAIP8L3 (11732012_x_at) / Fold change /veh TNFAIP8L3 (11732012_x_at) / RFU MBOAT4 (11741988_at) / Fold change /veh MBOAT4 (11741988_at) / RFU 11764193_at / Fold change /veh 11764193_at / RFU TMEM53 (11763286_at) / Fold change /veh TMEM53 (11763286_at) / RFU MAGEB2 (11727129_at) / Fold change /veh MAGEB2 (11727129_at) / RFU TMEM200A (11744735_a_at) / Fold change /veh TMEM200A (11744735_a_at) / RFU CCDC152 (11751479_a_at) / Fold change /veh CCDC152 (11751479_a_at) / RFU FAM211A (11726209_a_at) / Fold change /veh FAM211A (11726209_a_at) / RFU RGS16 (11746705_a_at) / Fold change /veh RGS16 (11746705_a_at) / RFU VCAN (11755009_s_at) / Fold change /veh VCAN (11755009_s_at) / RFU RHOB (11743442_s_at) / Fold change /veh RHOB (11743442_s_at) / RFU RGS16 (11720943_a_at) / Fold change /veh RGS16 (11720943_a_at) / RFU RGS16 (11720944_at) / Fold change /veh RGS16 (11720944_at) / RFU, VPS4B / Fold change vs veh, VPS4B / RFU, CREB1 / Fold change vs veh, CREB1 / RFU, DNAJC13 / Fold change vs veh, DNAJC13 / RFU, GNAQ / Fold change vs veh, GNAQ / RFU, CDK5R1 / Fold change vs veh, CDK5R1 / RFU, ZRANB3 / Fold change vs veh, ZRANB3 / RFU, CUL4A / Fold change vs veh, CUL4A / RFU, CCNY / Fold change vs veh, CCNY / RFU, UFL1 / Fold change vs veh, UFL1 / RFU, COG3 / Fold change vs veh, COG3 / RFU, DIAPH2 / Fold change vs veh, DIAPH2 / RFU, SKA2 / Fold change vs veh, SKA2 / RFU, AFF3 / Fold change vs veh, AFF3 / RFU, LMF1 / Fold change vs veh, LMF1 / RFU, IPO11 / Fold change vs veh, IPO11 / RFU, DFFB / Fold change vs veh, DFFB / RFU, FOXP1 / Fold change vs veh, FOXP1 / RFU, CARD8 / Fold change vs veh, CARD8 / RFU, STRN3 / Fold change vs veh, STRN3 / RFU, ADK / Fold change vs veh, ADK / RFU, RASSF2 / Fold change vs veh, RASSF2 / RFU, WIPF1 / Fold change vs veh, WIPF1 / RFU, LARP1B / Fold change vs veh, LARP1B / RFU, RASA1 / Fold change vs veh, RASA1 / RFU, RB1 / Fold change vs veh, RB1 / RFU, PPFIA1 / Fold change vs veh, PPFIA1 / RFU, MAT2A / Fold change vs veh, MAT2A / RFU, CCT5 / Fold change vs veh, CCT5 / RFU, WDR92 / Fold change vs veh, WDR92 / RFU, CUX1 / Fold change vs veh, CUX1 / RFU, TTC7A / Fold change vs veh, TTC7A / RFU, TMEM135 / Fold change vs veh, TMEM135 / RFU, DEPTOR / Fold change vs veh, DEPTOR / RFU, CPM / Fold change vs veh, CPM / RFU, DNAJB6 / Fold change vs veh, DNAJB6 / RFU, CACNA2D3 / Fold change vs veh, CACNA2D3 / RFU, DTX4 / Fold change vs veh, DTX4 / RFU, TFCP2 / Fold change vs veh, TFCP2 / RFU, GMCL1 /// GMCL1P1 / Fold change vs veh, GMCL1 /// GMCL1P1 / RFU, AEBP2 / Fold change vs veh, AEBP2 / RFU, SNHG1 /// SNORD22 /// SNORD25 /// SNORD26 /// SNORD27 /// SNORD28 /// SNORD29 /// SNORD31 / Fold change vs veh, SNHG1 /// SNORD22 /// SNORD25 /// SNORD26 /// SNORD27 /// SNORD28 /// SNORD29 /// SNORD31 / Fold change (Aza/veh), C12orf56 (ProbeSet 11735607_a_at) / Fold change (ACY-1035/veh), C12orf56 (ProbeSet 11735607_a_at) / Fold change (Aza/veh), FGFR1OP (ProbeSet 11751329_s_at) / Fold change (ACY-1035/veh), FGFR1OP (ProbeSet 11751329_s_at) / Fold change (Aza/veh), VPS36 (ProbeSet 11739960_a_at) / Fold change (ACY-1035/veh), VPS36 (ProbeSet 11739960_a_at) / RFU SYPL1 (11715823_x_at) / Fold change /veh SYPL1 (11715823_x_at) / RFU IGFBP7 (11715501_s_at) / Fold change /veh IGFBP7 (11715501_s_at) / RFU REEP3 (11722064_at) / Fold change /veh REEP3 (11722064_at) / RFU IGLL1 (11728026_x_at) / Fold change /veh IGLL1 (11728026_x_at): dose or concentration left out as unconfirmed
Details: ProbeSet 11743286_at; LIST D

## Nc1ccc(-c2cccs2)cc1NC(=O)c1ccc2c(c1)cc(C1CC1)n2CCN1CCOCC1 [ACY-1035]
  RFU, DTX4: 268.88 RFU
